Assay results from ChEMBL document CHEMBL2331136, “Apoptosis-inducing activity of the actin-depolymerizing agent aplyronine A and its side-chain derivatives” (Bioorg Med Chem Lett, 2013).
pIC50: −log10 of the molar value. The source made the active and inactive calls. No cut-off for these calls is given here.

Experiments:
HL-60 [1] = assay: Cytotoxicity against human HL60 cells after 72 hrs by MTT assay; type: functional, cell-based; details: HL-60, 72 h
[2] = Induction of F-actin (unknown origin) polymerization after 1 hr by spectrofluorometric analysis; parameters: species or system Homo sapiens
HL-60 [3] = assay: Cytotoxicity against human HL60 cells after 24 hrs by trypan blue dye exclusion assay in presence of Z-VAD-FMK; type: functional, cell-based
HeLa S3 [4] = assay: Cytotoxicity against human HeLaS3 cells after 48 hrs by trypan blue dye exclusion assay in presence of Z-VAD-FMK; type: functional, cell-based
HeLa S3 [5] = assay: Cytotoxicity against human HeLaS3 cells after 48 hrs by trypan blue dye exclusion assay; type: functional, cell-based
HL-60 [6] = assay: Cytotoxicity against human HL60 cells after 24 hrs by trypan blue dye exclusion assay; type: functional, cell-based
[7] = Cytotoxicity against human HeLaS3 cells after 72 hrs by MTT assay; type: functional, cell-based; details: HeLa S3, 72 h
HL-60 [8] = assay: Induction of apoptosis in human HL60 cells assessed as DNA fragmentation after 24 hrs by agarose gel electrophoresis; type: functional, cell-based
HeLa S3 [9] = assay: Induction of apoptosis in human HeLaS3 cells assessed as DNA fragmentation after 24 hrs by agarose gel electrophoresis; type: functional, cell-based
HL-60 [10] = assay: Induction of apoptosis in human HL60 cells assessed as activation of caspase-3 at 0.1 to 1 nM after 18 hrs by spectrophotometric analysis; type: functional, cell-based
HL-60 [11] = assay: Induction of apoptosis in human HL60 cells assessed as nuclear shrinkage and fragmentation at 1 nM after 12 hrs using rhodamine-phalloidin staining by fluorescence microscopy in presence of Z-VAD-FMK; type: functional, cell-based
HL-60 [12] = assay: Induction of apoptosis in human HL60 cells assessed as disruption and aggregation of actin filaments at 1 nM after 12 hrs using rhodamine-phalloidin staining by fluorescence microscopy; type: functional, cell-based
HL-60 [13] = assay: Induction of apoptosis in human HL60 cells assessed as disruption and aggregation of actin filaments at 0.1 nM after 12 hrs using rhodamine-phalloidin staining by fluorescence microscopy; type: functional, cell-based
HL-60 [14] = assay: Induction of apoptosis in human HL60 cells assessed as nuclear shrinkage and fragmentation at 1 nM after 12 hrs using rhodamine-phalloidin staining by fluorescence microscopy; type: functional, cell-based
HL-60 [15] = assay: Induction of apoptosis in human HL60 cells assessed as disruption and aggregation of actin filaments at 30 uM after 12 hrs using rhodamine-phalloidin staining by fluorescence microscopy; type: functional, cell-based
HL-60 [16] = assay: Induction of apoptosis in human HL60 cells assessed as nuclear shrinkage and fragmentation at 30 uM after 12 hrs using rhodamine-phalloidin staining by fluorescence microscopy in presence of Z-VAD-FMK; type: functional, cell-based
HL-60 [17] = assay: Induction of apoptosis in human HL60 cells assessed as activation of caspase-3 at 10 to 30 uM after 18 hrs by spectrophotometric analysis; type: functional, cell-based
HL-60 [18] = assay: Induction of apoptosis in human HL60 cells assessed as nuclear shrinkage and fragmentation at 30 uM after 12 hrs using rhodamine-phalloidin staining by fluorescence microscopy; type: functional, cell-based

Structure (SMILES) | pIC50 (HL-60 [1]) | pIC50 [2] | Activity (HL-60 [3]) | Activity (HeLa S3 [4]) | Activity (HeLa S3 [5]) | Activity (HL-60 [6]) | pIC50 [7] | Activity (HL-60 [8]) | Activity (HeLa S3 [9]) | further results
CC(=O)O[C@@H]([C@@H](C)[C@@H](/C=C/CCc1ccccc1)OC(=O)[C@H](C)N(C)C)[C@H](C)/C=C/N(C)C=O | 4.28 | 4.07 |  |  |  |  |  |  |  | 
CC(=O)O[C@@H]([C@@H](C)[C@@H](/C=C/c1ccccc1)OC(=O)[C@H](C)N(C)C)[C@H](C)/C=C/N(C)C=O | 4.56 | 4.33 |  |  |  |  |  |  |  | 
COC[C@@H](OC)C(=O)O[C@H](CC[C@H](C)[C@@H](C[C@@H]1OC(=O)C[C@@H](O)C/C=C/C(=O)[C@H](C)[C@H](OC)c2coc(n2)-c2coc(n2)-c2coc(n2)/C=C/C[C@H](OC)[C@H]1C)OC)[C@H](C)[C@H](OC(C)=O)[C@H](C)/C=C/N(C)C=O [MYCALOLIDE B] | 8.33 | 5.77 | inactive | inactive | Dose-dependent effect | Dose-dependent effect | 7.28 | Active | Active | 
C/C=C/[C@@H](OC(=O)[C@H](C)N(C)C)[C@H](C)[C@H](OC(C)=O)[C@H](C)/C=C/N(C)C=O | 3.62 | 3.68 |  |  |  |  |  |  |  | 
COCC(C(=O)O[C@@H]1C/C=C/C=C/C(=O)O[C@H]([C@@H](C)[C@@H](O)[C@@H](C)CC[C@@H](OC(=O)C(C)N(C)C)[C@H](C)[C@H](OC(C)=O)[C@H](C)/C=C/N(C)C=O)C/C=C/[C@H](OC)C[C@H](C)C/C=C(\C)[C@@H](OC)CC[C@@H](C)[C@@H](O)[C@@H]1C)N(C)C (some centres not stated) [APLYRONINE A] |  | 5.80 | inactive | inactive | Dose-dependent effect | Dose-dependent effect | 9.54 | Active | Active | Activity (HL-60 [10]): Active; Activity (HL-60 [11]): inactive; Activity (HL-60 [12]): Active; Activity (HL-60 [13]): Active; Activity (HL-60 [14]): Active
CC(=O)O[C@@H]([C@@H](C)[C@@H](/C=C/CCCCc1ccccc1)OC(=O)[C@H](C)N(C)C)[C@H](C)/C=C/N(C)C=O | 4.90 | 4.68 | inactive |  |  | Active |  | Active |  | Activity (HL-60 [15]): Active; Activity (HL-60 [16]): inactive; Activity (HL-60 [17]): Active; Activity (HL-60 [18]): Active
